Source: ChEMBL document CHEMBL1145338, “Novel 2-aminopyrimidine carbamates as potent and orally active inhibitors of Lck: synthesis, SAR, and in vivo antiinflammatory activity” (J Med Chem, 2006)
pIC50: −log10 of the molar value.

Biological target: Tyrosine-protein kinase Lck (Homo sapiens, UniProt P06239)
Sequence (P06239 whole entry): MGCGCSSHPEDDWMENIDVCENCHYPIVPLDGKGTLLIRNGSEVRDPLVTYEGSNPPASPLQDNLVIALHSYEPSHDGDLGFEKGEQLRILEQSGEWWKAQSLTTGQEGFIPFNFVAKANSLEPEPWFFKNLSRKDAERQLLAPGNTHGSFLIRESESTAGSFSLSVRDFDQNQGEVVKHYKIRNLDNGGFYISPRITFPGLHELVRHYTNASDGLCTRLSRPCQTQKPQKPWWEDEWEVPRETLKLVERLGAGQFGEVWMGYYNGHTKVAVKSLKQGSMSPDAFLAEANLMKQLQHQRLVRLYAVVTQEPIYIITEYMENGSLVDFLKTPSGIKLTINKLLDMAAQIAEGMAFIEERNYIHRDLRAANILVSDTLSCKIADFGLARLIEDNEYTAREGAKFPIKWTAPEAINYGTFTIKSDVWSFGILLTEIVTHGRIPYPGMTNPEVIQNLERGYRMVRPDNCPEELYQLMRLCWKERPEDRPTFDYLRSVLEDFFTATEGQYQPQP
Description: Inhibition of Lck in presence of 0.5 uM ATP by HTRF kinase assay

Compound | pIC50
COc1ccc(N(C(=O)Oc2c(C)cccc2C)c2ccnc(Nc3ccc(OCCCN4CCN(C)CC4)c(F)c3)n2)c(OC)c1 | 9.00
COc1ccccc1N(C(=O)Oc1c(C)cccc1C)c1ccnc(Nc2ccc(N3CCN(C)CC3)cc2)n1 | 9.00
COc1ccc(N(C(=O)Oc2c(C)cccc2C)c2ccnc(Nc3ccc(OCCCN4CCCCC4)c(F)c3)n2)c(OC)c1 | 8.70
COc1ccc(N(C(=O)Oc2c(C)cccc2C)c2ccnc(Nc3ccc(OCCCN4CCN(C)CC4)c(OC)c3)n2)c(OC)c1 | 9.00
COc1ccc(N(C(=O)Oc2c(C)cccc2C)c2ccnc(Nc3ccc(N4CCN(C)CC4)c(F)c3)n2)c(OC)c1 | 9.00
COc1ccc(N(C(=O)Oc2c(C)cccc2C)c2ccnc(Nc3ccc(OCCN(C)C)cc3)n2)c(OC)c1 | 9.00
COc1ccc(N(C(=O)Oc2c(C)cccc2C)c2ccnc(Nc3ccc(N4CCN(C)CC4)cc3)n2)cc1 | 7.92
Cc1cccc(C)c1OC(=O)N(c1ccnc(Nc2ccc(N3CCN(C)CC3)cc2)n1)c1ccc(F)cc1OC(C)C | 9.00
COc1ccc(N(C(=O)Oc2c(C)cccc2C)c2ccnc(Nc3cc(OC)c(N4CCN(C)CC4)c(OC)c3)n2)c(OC)c1 | 9.00
COc1ccc(N(C(=O)Oc2c(C)cccc2C)c2ccnc(Nc3cc(OC)c(OCCN4CCOCC4)c(OC)c3)n2)c(OC)c1 | 9.00

Biological target: Vascular endothelial growth factor receptor 2 (Homo sapiens, UniProt P35968)
Sequence (P35968 whole entry): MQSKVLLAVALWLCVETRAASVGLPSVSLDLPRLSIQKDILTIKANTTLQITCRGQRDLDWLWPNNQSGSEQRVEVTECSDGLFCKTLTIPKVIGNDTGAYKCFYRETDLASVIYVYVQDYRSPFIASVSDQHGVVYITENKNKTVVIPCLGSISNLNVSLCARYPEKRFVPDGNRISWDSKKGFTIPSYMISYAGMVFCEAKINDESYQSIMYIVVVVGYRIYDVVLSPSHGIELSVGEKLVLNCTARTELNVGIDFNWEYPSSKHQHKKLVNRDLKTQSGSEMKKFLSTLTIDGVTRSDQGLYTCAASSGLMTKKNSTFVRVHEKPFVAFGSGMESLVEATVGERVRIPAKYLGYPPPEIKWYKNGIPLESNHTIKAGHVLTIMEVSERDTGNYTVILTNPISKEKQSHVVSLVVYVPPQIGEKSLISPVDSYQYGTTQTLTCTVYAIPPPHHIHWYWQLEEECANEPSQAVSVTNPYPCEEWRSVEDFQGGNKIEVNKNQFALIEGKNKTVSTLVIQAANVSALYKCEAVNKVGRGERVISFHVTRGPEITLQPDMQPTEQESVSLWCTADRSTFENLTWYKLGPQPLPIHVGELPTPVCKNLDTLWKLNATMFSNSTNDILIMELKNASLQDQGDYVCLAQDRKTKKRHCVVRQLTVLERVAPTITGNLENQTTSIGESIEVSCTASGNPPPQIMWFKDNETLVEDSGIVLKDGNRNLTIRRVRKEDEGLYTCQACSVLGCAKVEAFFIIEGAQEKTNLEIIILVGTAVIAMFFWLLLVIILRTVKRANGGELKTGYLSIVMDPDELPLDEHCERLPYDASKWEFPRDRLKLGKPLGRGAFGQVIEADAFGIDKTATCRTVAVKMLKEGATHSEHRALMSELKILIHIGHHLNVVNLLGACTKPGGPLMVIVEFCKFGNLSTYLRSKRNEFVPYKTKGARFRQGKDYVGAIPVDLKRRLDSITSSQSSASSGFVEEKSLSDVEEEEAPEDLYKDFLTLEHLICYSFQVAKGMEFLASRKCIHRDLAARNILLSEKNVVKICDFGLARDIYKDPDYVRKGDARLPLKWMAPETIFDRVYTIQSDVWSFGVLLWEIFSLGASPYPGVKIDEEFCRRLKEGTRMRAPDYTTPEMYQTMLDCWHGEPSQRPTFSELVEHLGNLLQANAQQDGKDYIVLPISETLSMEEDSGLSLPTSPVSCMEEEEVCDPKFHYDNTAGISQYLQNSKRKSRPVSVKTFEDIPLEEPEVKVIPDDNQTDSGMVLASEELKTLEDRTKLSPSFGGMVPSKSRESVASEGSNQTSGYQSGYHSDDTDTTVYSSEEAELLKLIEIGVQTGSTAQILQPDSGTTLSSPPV

Compound | pIC50
COc1ccc(N(C(=O)Oc2c(C)cccc2C)c2ccnc(Nc3ccc(OCCCN4CCN(C)CC4)c(F)c3)n2)c(OC)c1 | 6.23
COc1ccccc1N(C(=O)Oc1c(C)cccc1C)c1ccnc(Nc2ccc(N3CCN(C)CC3)cc2)n1 | 6.72
COc1ccc(N(C(=O)Oc2c(C)cccc2C)c2ccnc(Nc3ccc(OCCCN4CCCCC4)c(F)c3)n2)c(OC)c1 | 6.21
COc1ccc(N(C(=O)Oc2c(C)cccc2C)c2ccnc(Nc3ccc(OCCCN4CCN(C)CC4)c(OC)c3)n2)c(OC)c1 | 6.68
COc1ccc(N(C(=O)Oc2c(C)cccc2C)c2ccnc(Nc3ccc(N4CCN(C)CC4)c(F)c3)n2)c(OC)c1 | 6.59
COc1ccc(N(C(=O)Oc2c(C)cccc2C)c2ccnc(Nc3ccc(OCCN(C)C)cc3)n2)c(OC)c1 | 6.66
COc1ccc(N(C(=O)Oc2c(C)cccc2C)c2ccnc(Nc3ccc(N4CCN(C)CC4)cc3)n2)cc1 | 6.38
Cc1cccc(C)c1OC(=O)N(c1ccnc(Nc2ccc(N3CCN(C)CC3)cc2)n1)c1ccc(F)cc1OC(C)C | 5.32
COc1ccc(N(C(=O)Oc2c(C)cccc2C)c2ccnc(Nc3cc(OC)c(N4CCN(C)CC4)c(OC)c3)n2)c(OC)c1 | 6.77
COc1ccc(N(C(=O)Oc2c(C)cccc2C)c2ccnc(Nc3cc(OC)c(OCCN4CCOCC4)c(OC)c3)n2)c(OC)c1 | 6.77

Biological target: Proto-oncogene tyrosine-protein kinase Src (Homo sapiens, UniProt P12931)
Assay: Inhibition of Src

Chain of Proto-oncogene tyrosine-protein kinase Src (P12931 2-536 limits assumed): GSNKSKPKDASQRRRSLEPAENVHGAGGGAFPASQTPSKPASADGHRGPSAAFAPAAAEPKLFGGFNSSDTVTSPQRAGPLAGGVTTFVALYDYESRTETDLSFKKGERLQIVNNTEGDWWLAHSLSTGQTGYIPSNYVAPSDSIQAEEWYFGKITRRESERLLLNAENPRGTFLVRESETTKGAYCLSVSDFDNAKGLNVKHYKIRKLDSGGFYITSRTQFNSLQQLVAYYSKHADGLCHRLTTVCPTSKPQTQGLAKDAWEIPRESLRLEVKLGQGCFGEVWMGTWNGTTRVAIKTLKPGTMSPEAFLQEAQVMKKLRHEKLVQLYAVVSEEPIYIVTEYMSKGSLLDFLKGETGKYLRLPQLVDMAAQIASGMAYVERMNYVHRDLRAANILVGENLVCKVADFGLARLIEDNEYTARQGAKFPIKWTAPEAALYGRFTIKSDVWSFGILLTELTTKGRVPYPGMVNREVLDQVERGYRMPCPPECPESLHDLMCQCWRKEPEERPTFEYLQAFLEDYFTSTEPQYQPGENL

Compound | pIC50
COc1ccc(N(C(=O)Oc2c(C)cccc2C)c2ccnc(Nc3ccc(OCCCN4CCN(C)CC4)c(F)c3)n2)c(OC)c1 | 8.30
COc1ccccc1N(C(=O)Oc1c(C)cccc1C)c1ccnc(Nc2ccc(N3CCN(C)CC3)cc2)n1 | 8.40
COc1ccc(N(C(=O)Oc2c(C)cccc2C)c2ccnc(Nc3ccc(OCCCN4CCCCC4)c(F)c3)n2)c(OC)c1 | 7.92
COc1ccc(N(C(=O)Oc2c(C)cccc2C)c2ccnc(Nc3ccc(OCCCN4CCN(C)CC4)c(OC)c3)n2)c(OC)c1 | 8.70
COc1ccc(N(C(=O)Oc2c(C)cccc2C)c2ccnc(Nc3ccc(N4CCN(C)CC4)c(F)c3)n2)c(OC)c1 | 8.70
COc1ccc(N(C(=O)Oc2c(C)cccc2C)c2ccnc(Nc3ccc(OCCN(C)C)cc3)n2)c(OC)c1 | 8.40
COc1ccc(N(C(=O)Oc2c(C)cccc2C)c2ccnc(Nc3ccc(N4CCN(C)CC4)cc3)n2)cc1 | 8.52
Cc1cccc(C)c1OC(=O)N(c1ccnc(Nc2ccc(N3CCN(C)CC3)cc2)n1)c1ccc(F)cc1OC(C)C | 7.89
COc1ccc(N(C(=O)Oc2c(C)cccc2C)c2ccnc(Nc3cc(OC)c(N4CCN(C)CC4)c(OC)c3)n2)c(OC)c1 | 9.00
COc1ccc(N(C(=O)Oc2c(C)cccc2C)c2ccnc(Nc3cc(OC)c(OCCN4CCOCC4)c(OC)c3)n2)c(OC)c1 | 8.70

Biological target: Mitogen-activated protein kinase 14 (Homo sapiens, UniProt Q16539)
Assay: Inhibition of p38alpha

Chain of Mitogen-activated protein kinase 14 (Q16539 whole entry): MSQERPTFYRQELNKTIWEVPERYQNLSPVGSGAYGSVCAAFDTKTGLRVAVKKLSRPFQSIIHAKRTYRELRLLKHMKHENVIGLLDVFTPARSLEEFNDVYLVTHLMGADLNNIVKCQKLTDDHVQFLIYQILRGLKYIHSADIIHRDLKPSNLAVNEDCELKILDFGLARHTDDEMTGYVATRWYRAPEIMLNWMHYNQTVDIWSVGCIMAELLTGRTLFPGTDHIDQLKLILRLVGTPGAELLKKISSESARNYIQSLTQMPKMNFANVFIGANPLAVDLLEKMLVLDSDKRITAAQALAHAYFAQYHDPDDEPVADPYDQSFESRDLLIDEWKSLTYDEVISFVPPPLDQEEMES

Compound | pIC50
COc1ccc(N(C(=O)Oc2c(C)cccc2C)c2ccnc(Nc3ccc(OCCCN4CCN(C)CC4)c(F)c3)n2)c(OC)c1 | 5.89
COc1ccccc1N(C(=O)Oc1c(C)cccc1C)c1ccnc(Nc2ccc(N3CCN(C)CC3)cc2)n1 | 6.38
COc1ccc(N(C(=O)Oc2c(C)cccc2C)c2ccnc(Nc3ccc(OCCCN4CCCCC4)c(F)c3)n2)c(OC)c1 | 5.17
COc1ccc(N(C(=O)Oc2c(C)cccc2C)c2ccnc(Nc3ccc(OCCCN4CCN(C)CC4)c(OC)c3)n2)c(OC)c1 | 5.64
COc1ccc(N(C(=O)Oc2c(C)cccc2C)c2ccnc(Nc3ccc(N4CCN(C)CC4)c(F)c3)n2)c(OC)c1 | 6.00
COc1ccc(N(C(=O)Oc2c(C)cccc2C)c2ccnc(Nc3ccc(OCCN(C)C)cc3)n2)c(OC)c1 | 5.68
COc1ccc(N(C(=O)Oc2c(C)cccc2C)c2ccnc(Nc3ccc(N4CCN(C)CC4)cc3)n2)cc1 | 6.49
Cc1cccc(C)c1OC(=O)N(c1ccnc(Nc2ccc(N3CCN(C)CC3)cc2)n1)c1ccc(F)cc1OC(C)C | 5.92
COc1ccc(N(C(=O)Oc2c(C)cccc2C)c2ccnc(Nc3cc(OC)c(N4CCN(C)CC4)c(OC)c3)n2)c(OC)c1 | 6.37
COc1ccc(N(C(=O)Oc2c(C)cccc2C)c2ccnc(Nc3cc(OC)c(OCCN4CCOCC4)c(OC)c3)n2)c(OC)c1 | 5.92

System: T-cell
Assay: Inhibition of human T cell proliferation by mixed lymphocyte reaction
Format: functional, cell-based

Compound | pIC50
COc1ccc(N(C(=O)Oc2c(C)cccc2C)c2ccnc(Nc3cc(OC)c(N4CCN(C)CC4)c(OC)c3)n2)c(OC)c1 | 6.23

System: T-cell
Assay: Inhibition of anti-CD3/CD28-induced IL2 secretion in human T cells
Format: functional, cell-based

Compound | pIC50
COc1ccc(N(C(=O)Oc2c(C)cccc2C)c2ccnc(Nc3ccc(OCCCN4CCN(C)CC4)c(F)c3)n2)c(OC)c1 | 6.29
COc1ccc(N(C(=O)Oc2c(C)cccc2C)c2ccnc(Nc3ccc(OCCCN4CCCCC4)c(F)c3)n2)c(OC)c1 | 6.07
COc1ccc(N(C(=O)Oc2c(C)cccc2C)c2ccnc(Nc3ccc(OCCCN4CCN(C)CC4)c(OC)c3)n2)c(OC)c1 | 7.00
COc1ccc(N(C(=O)Oc2c(C)cccc2C)c2ccnc(Nc3ccc(N4CCN(C)CC4)c(F)c3)n2)c(OC)c1 | 6.70
COc1ccc(N(C(=O)Oc2c(C)cccc2C)c2ccnc(Nc3ccc(OCCN(C)C)cc3)n2)c(OC)c1 | 6.57
COc1ccc(N(C(=O)Oc2c(C)cccc2C)c2ccnc(Nc3cc(OC)c(OCCN4CCOCC4)c(OC)c3)n2)c(OC)c1 | 6.39
